# According to patent publication US10172914B2, “Combination” (Genesis Pharma SA, priority 2015, dated 2019):
# Assays:
# [1] = system: Rabbit Model of Acute Myocardial Infarction Injury; test: Rabbit ischemia-reperfusion model, exenatide and potassium canrenoate, infarct size (Example 3); assay type: in vivo, New Zealand White rabbits; details: for IF/AAR: mean ± SEM, exenatide 0.15 μg/Kg and/or P. canrenoate 1 mg/Kg IV bolus 15 min before reperfusion, 30 min ischemia, 180 min reperfusion
# [2] = system: Mouse Model of Acute Myocardial Infarction Injury; test: Mouse ischemia-reperfusion model, mono-, double and triple therapies, infarct size (Example 5); assay type: in vivo, C57BL/6 mice; details: for IF/AAR: mean ± SEM
# Method: The test/control articles were given intravenously, under general anaesthesia, in order to mimic the expected route of administration in the clinical setting of acute myocardial infarction and primary percutaneous coronary intervention.
# The study followed a predetermined placebo controlled design. […] In all cases, treatments (intravenous bolus administration of saline or test articles or their combinations) were performed 20 min after the onset of ischemia (10 min before the initiation of reperfusion). The experiments were terminated 2 h post-reperfusion (end of study); irreversible myocardial injury (infarct size by histomorphometry) at this time-point was evaluated, and was the primary-end-point of the study.
# Mice were anaesthetized by intraperitoneal injection (0.01 ml/Kg) with a combination of ketamine, xylazine and atropine (final doses of ketamine, xylazine and atropine were 100, 20 and 0.6 mg/Kg, respectively). Anaesthetic depth was evaluated by loss of pedal reflex to toe-pinch stimulus and breathing rate. A tracheotomy was performed for artificial respiration at 120-150 breaths/min and positive end-expiratory pressure 2.0 (0.2 ml of total tidal volume; Flexivent rodent ventilator, Scireq, Montreal, ON, Canada). A thoracotomy was then performed between the fourth and fifth ribs and the pericardium carefully retracted to visualize the left anterior descending (LAD), which was ligated using an 8-0 prolene monofilament polypropylene suture placed 1 mm below the tip of the left auricle. […] After the ischemic period, the ligature was released allowing reperfusion of myocardium. Throughout experiments, body temperature was maintained at 37±0.5° C. by way of a heating pad and monitored via a thermocouple inserted rectally.
# After reperfusion, animals were sacrificed with an intraperitoneal injection of the ketamine (200 mg/Kg) and xylazine (50 mg/Kg) anesthetic mixture (0.02 ml/Kg) hearts were rapidly excited from mice and directly cannulated and washed with 2.5 ml of saline heparin 1% for blood removal. Five ml of 1% TTC phosphate buffer 37° C. were infused into the coronary circulation; the tissue was incubated for 5 min in the same buffer. Evans Blue 1% diluted in distilled water (2.5 ml) was the infused into the heart. Hearts were kept at −20° C. for 24 hours and then sliced in 1 mm sections parallel to the atrioventricular groove, and then fixed in 4% formalin overnight. […] The areas of myocardial tissue at risk and infarcted were automatically transformed into volumes. Infarct and risk area volumes were expressed in cm^3. For each slide, the AAR was expressed as a percentage of the LV area (AAR/LV), and the IF was expressed as a percentage of the AAR (IF/AAR). In all cases, quantitative histomorphometry was performed by personnel blinded to the treatment assignment/study-design.
# All results are presented as mean+SEM. Comparisons of numeric variables among the groups were analyzed using an one-way analysis of variance (ANOVA) model with Bonferroni correction and with Tukey post hoc analysis. […] A calculated P-value of less than 0.05 was considered to be statistically significant.
# [3] = exenatide 0.05 μg/Kg, cyclosporine 0.15 mg/Kg, P. canrenoate 1 mg/Kg, alone or in double/triple combination
# [4] = monotherapy doses: exenatide 0.001 μg/Kg, cyclosporine 0.001 mg/Kg, P. canrenoate 0.03 mg/Kg
# [5] = monotherapy doses: exenatide 0.005 μg/Kg, cyclosporine 0.01 mg/Kg, P. canrenoate 0.3 mg/Kg
# [6] = monotherapy doses: exenatide 0.15 μg/Kg, cyclosporine 0.5 mg/Kg, P. canrenoate 10 mg/Kg
structure (smiles),measurement,setting,value
"C[C@]12CCC(=O)C=C1C=C[C@@H]1[C@@H]2CC[C@@]2(C)[C@H]1CC[C@@]2(O)CCC(=O)[O-].[K+] [P. CANRENOATE, potassium 3-[(8R,9S,10R,13S,14S,17R)-17-hydroxy-10,13-dimethyl-3-oxo-2,8,9,11,12,14,15,16 octahydro-1H-cyclopenta[a]phenanthren-17-yl]propanoate]",reduction of the extent of infarct,"[1]; compared with the control group, exenatide 0.15 μg/Kg and/or potassium canrenoate 1 mg/Kg",30.5%
same,Different (%) in IF/AAR from Control,[1]; exenatide 0.15 μg/Kg and/or P. canrenoate 1 mg/Kg,−30.5%
same,IF/AAR,[1],34.36 ± 2.83%
same,IF/AAR,[1]; listed as potassium canrenoate,34.36±2.83%
same,reduction of infarct size / extent of infarct,"[2]; compared with the control group, exenatide 0.05 μg/kg, cyclosporine 0.15 mg/kg, potassium canrenoate 1 mg/kg, alone or combined",30%
same,reduction of infarct size,"[2]; compared with the control group, potassium canrenoate 10 mg/kg monotherapy",58.9%
same,Different (%) in IF/AAR from Control,[2]; [3],−30%
same,IF/AAR,[2]; [3],33.2 ± 2.4%
same,IF/AAR,"[2]; exenatide 0.05 μg/Kg, cyclosporine 0.15 mg/Kg, P. canrenoate 1 mg/Kg, alone or in double/triple combination, listed as potassium canrenoate",33.2±2.4%
same,IF/AAR,[2]; [4],46 ± 2.5%
same,IF/AAR,[2]; [5],44 ± 3.2%
same,IF/AAR,[2]; [6],19.5 ± 2.5%
same,IF/AAR,"[2]; monotherapy doses: exenatide 0.15 μg/Kg, cyclosporine 0.5 mg/Kg, P. canrenoate 10 mg/Kg, listed as potassium canrenoate",19.5±2.5%
same,Different (%) in IF/AAR from Control,[2]; [4],−3%
same,Different (%) in IF/AAR from Control,[2]; [5],−7.2%
same,Different (%) in IF/AAR from Control,[2]; [6],−58.9%
